As a reminder, the IC50 is the concentration needed to halve the response being measured.

This note sets out measurements from ChEMBL document CHEMBL1144539, “Fluoro-ketopyranosyl nucleosides: synthesis and biological evaluation of 3-fluoro-2-keto-beta-D-glucopyranosyl derivatives of N4-benzoyl cytosine” (Bioorg Med Chem, 2007).

Molecules are shown by their SMILES. Converted amounts (≈) assume the structure as drawn.

Test [1] has as its system Caco-2. Put plainly: Growth inhibition of human Caco-2 cells after 72 hrs. The class given is functional, cell-based. Conditions: Caco-2, 72 h.
Test [2] can be described thus: Antiviral activity against bovine rotavirus RF in MA 104 cells assessed as neutralization of virus in solution before cell attachment. In kind it is functional, cell-based, Bovine rotavirus strain RF. Conditions: Rotavirus A.
The test system of test [3] is Caco-2. Kind of test: Cytotoxicity against human Caco-2 cells after 72 hrs. The class given is cell-based. To be noted: Caco-2, 72 h.
Test [4] in a line: Stimulation of proliferation of monkey MA104 cells at 30 ng/mL after 72 hrs relative to control. In kind it is functional, Macaca mulatta.
Test [5] in a line: Inhibition of bovine rotavirus RF infectivity following virus attachment to MA 104 cells. In kind it is functional, cell-based, Bovine rotavirus strain RF. To be noted: Rotavirus A.
The nature of test [6]: Antiviral activity against bovine rotavirus RF in MA104 cells. In kind it is functional, cell-based, Bovine rotavirus strain RF. To be noted: Rotavirus A.

`O=C(Nc1ccn(C[C@@H]2O[C@H](CO)[C@@H](O)[C@H](F)C2=O)c(=O)n1)c1ccccc1`: the half-maximal inhibitory concentration (IC50) was determined as 2500 µg/mL (≈ 6390 µM) in test [1], 70 µg/mL (≈ 179 µM) in test [2], 1500 µg/mL (≈ 3830 µM) in test [3] and 70 µg/mL (≈ 179 µM) in test [5]. The same molecule yielded an Activity in test [4] of 40%.

`Cc1cn([C@H]2C[C@H](N=[N+]=[N-])[C@@H](CO)O2)c(=O)[nH]c1=O` [ZIDOVUDINE]: the IC50 was found to be 4 µg/mL (≈ 15 µM) in test [6]; 15 µg/mL (≈ 56.1 µM) in test [1]; 60 µg/mL (≈ 225 µM) in test [2]; 15 µg/mL (≈ 56.1 µM) in test [3]; 15 µg/mL (≈ 56.1 µM) in test [5].
